Measurements published in US10124004B2, “Pyrido[3,4-d]pyrimidine derivative and pharmaceutically acceptable salt thereof” (Teijin Pharma Limited, priority 2015, dated 2018).
Like-named read-outs stand apart in the source and are kept apart here.

Tests used:
CDK2/cyclin A2 = target: T1, CDK2/cyclin A2 (Homo sapiens, UniProt P24941); test: Human CDK2/cyclin A2 inhibitory activity (QS S Assist CDK2/Cyclin A2_FP Kit, IMAP fluorescence polarization); format: biochemical
T1 construct: purchased Carna Biosciences, Inc. QS S Assist CDK2/Cyclin A2_FP Kit
How it was run: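 Kinase activity read as fluorescence polarization (485/535 nm) after phosphorylated fluorescent substrate binds IMAP reagent (30 min, RT, dark). Enzyme (2.5 ng/well) reacted 60 min at RT with ATP/substrate/metal in HEPES pH 7.4 buffer with Tween 20 and DTT; no-enzyme wells define 0% activity; IC50 by curve fit.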

CDK4/cyclin D3 = target: T2, CDK4/cyclin D3 (Homo sapiens, UniProt P11802); test: Human CDK4/cyclin D3 inhibitory activity (QS S Assist CDK4/Cyclin D3_FP Kit, IMAP fluorescence polarization); format: biochemical
T2 construct: purchased Carna Biosciences, Inc. QS S Assist CDK4/Cyclin D3_FP Kit
How it was run: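 IMAP fluorescence polarization kit: CDK4/cyclin D3 at 12.5-25 ng/well with kit ATP/substrate/metal mix in 20 mM HEPES pH 7.4, 0.01% Tween20, 2 mM DTT, 45 min at room temperature. FP read at 485/535 nm after 30 min binding; IC50 from dose-response fit of percent inhibition versus enzyme and no-enzyme controls.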

[1] = Human CDK2/cyclin A2 inhibitory activity, read-out: CDK2 Activity symbol
[2] = Human CDK4/cyclin D3 inhibitory activity, read-out: CDK4 Activity symbol
[3] = 50% inhibitory concentration against CDK2/cyclin A2, given as class symbol
[4] = 50% inhibitory concentration against CDK4/cyclin D3, given as class symbol

T2 sequence (P11802 whole entry): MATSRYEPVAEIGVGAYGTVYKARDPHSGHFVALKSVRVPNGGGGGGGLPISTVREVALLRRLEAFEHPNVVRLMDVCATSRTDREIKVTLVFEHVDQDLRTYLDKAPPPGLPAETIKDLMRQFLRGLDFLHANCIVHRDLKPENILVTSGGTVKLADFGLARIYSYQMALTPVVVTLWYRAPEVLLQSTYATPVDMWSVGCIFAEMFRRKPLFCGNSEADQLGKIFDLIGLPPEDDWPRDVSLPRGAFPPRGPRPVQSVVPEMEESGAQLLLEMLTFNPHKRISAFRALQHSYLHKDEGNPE
T2 sequence (P30281 whole entry partner): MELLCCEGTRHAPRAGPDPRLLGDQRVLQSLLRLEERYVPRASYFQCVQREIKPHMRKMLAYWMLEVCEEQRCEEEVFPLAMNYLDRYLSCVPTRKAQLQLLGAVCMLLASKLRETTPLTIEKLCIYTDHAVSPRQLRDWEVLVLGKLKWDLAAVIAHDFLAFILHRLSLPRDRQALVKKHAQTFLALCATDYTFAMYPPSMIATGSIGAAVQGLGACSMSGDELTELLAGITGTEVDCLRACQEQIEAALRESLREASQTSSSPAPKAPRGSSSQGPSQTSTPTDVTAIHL

Row | Structure (SMILES) | IC50 (CDK2/cyclin A2; [1]) [nM] | IC50 (CDK4/cyclin D3; [2]) [nM] | IC50 (CDK2/cyclin A2; [3]) [nM] | IC50 (CDK4/cyclin D3; [4]) [nM]
1 | CC(O)c1cc2cnc(Nc3ccc(N4CCNCC4)cn3)nc2c(NC(C)c2cc[nH]n2)n1 (centres unmarked) [Compound 105] | ≥ 100 | < 10 | – | –
2 | CC(C)Nc1nc([C@@H](C)O)cc2cnc(Nc3ccc(CN4CCNCC4)nn3)nc12 [Compound 1225] | – | – | ≥ 100 | < 10
3 | CC(C)Nc1nc([C@@H](C)O)cc2cnc(Nc3ccc(N4C[C@H]5CCN[C@H]5C4=O)cn3)nc12 [Compound 558] | 10 to 100 | < 10 | – | –
4 | CC(C)CNc1nc([C@@H](C)O)cc2cnc(Nc3ccc(N4CCNCC4=O)cn3)nc12 [Compound 826] | – | – | ≥ 100 | < 10
5 | CCCNc1nc(C(C)=O)cc2cnc(Nc3ccc(CN4CCNCC4)cn3)nc12 [Compound 910] | – | – | ≥ 100 | 10 to 100
6 | COCC(C)(C)Nc1nc(C(C)O)cc2cnc(Nc3ccc(N4CCNCC4)cn3)nc12 (centres unmarked) [Compound 29] | ≥ 100 | < 10 | – | –
7 | CC(=O)N1CCN(c2ccc(Nc3ncc4cc([C@@H](C)O)nc(NC(C)C)c4n3)nn2)CC1 [Compound 745] | – | – | ≥ 100 | < 10
8 | Cc1nc(Nc2ncc3cc([C@@H](C)O)nc(NC4CCC4)c3n2)ccc1N1CCNCC1=O [Compound 1048] | – | – | ≥ 100 | < 10
9 | C[C@@H](O)c1cc2cnc(Nc3ccc(C4CCN(CC(=O)O)CC4)cn3)nc2c(NC(C)(C)C)n1 [Compound 830] | – | – | ≥ 100 | < 10
10 | CC(=O)c1cc2cnc(Nc3ccc(N4CCNCC4)cn3)nc2c(NC(C)C)n1 [Compound 35] | ≥ 100 | < 10 | – | –
11 | CC(C)Nc1nc([C@@H](C)O)cc2cnc(Nc3ccc(N4CCN(C(C)C)CC4=O)cn3)nc12 [Compound 584] | ≥ 100 | < 10 | – | –
12 | CO[C@H](C)c1cc2cnc(Nc3ccc(CN4CCN(C(=O)C5CCCO5)CC4)cn3)nc2c(NC(C)C)n1 (some centres unmarked) [Compound 1157] | – | – | ≥ 100 | 10 to 100
13 | C[C@@H](O)c1cc2cnc(Nc3ccc(CN4CCN(CCO)CC4)cn3)nc2c(NCC2CCOCC2)n1 [Compound 847] | – | – | ≥ 100 | < 10
14 | CC(O)c1cc2cnc(Nc3ccc(N4CCNCC4)cn3)nc2c(N(C)C2CCOCC2)n1 (centres unmarked) [Compound 11] | ≥ 100 | 10 to 100 | – | –
15 | C[C@@H](O)c1cc2cnc(Nc3ccc(CN4CCNCC4)cn3)nc2c(N[C@@H]2CCCOC2)n1 [Compound 257] | ≥ 100 | < 10 | – | –
16 | CNC1CCN(c2ccc(Nc3ncc4cc(C(C)O)nc(NC(C)C)c4n3)nn2)CC1F (centres unmarked) [Compound 609] | ≥ 100 | < 10 | – | –
17 | CC(C)Nc1nc([C@@H](C)O)cc2cnc(Nc3ccc(N4CCC(N)CC4=O)cn3)nc12 (some centres unmarked) [Compound 605] | 10 to 100 | < 10 | – | –
18 | CN(C)CCOc1ccc(Nc2ncc3cc(C(F)F)nc(N[C@H]4CC[C@H](C(=O)O)CC4)c3n2)nc1 [Compound 385] | ≥ 100 | < 10 | – | –
19 | CC(O)c1cc2cnc(Nc3ccc(N4CCNCC4)cn3)nc2c(NC2CC2)n1 (centres unmarked) [Compound 21] | ≥ 100 | < 10 | – | –
20 | CC(=O)N(Cc1ccc(Nc2ncc3cc(C(F)F)nc(NC(C)C)c3n2)nc1)C[C@H]1CCCO1 [Compound 145] | 10 to 100 | < 10 | – | –

Row | Structure (SMILES) | IC50 (CDK2/cyclin A2; [1]) [nM] | IC50 (CDK4/cyclin D3; [2]) [nM] | IC50 (CDK2/cyclin A2; [3]) [nM] | IC50 (CDK4/cyclin D3; [4]) [nM]
21 | CC(C)Nc1nc([C@@H](C)O)cc2cnc(Nc3ccc(CN4CCN(C(C)CO)CC4)cn3)nc12 (some centres unmarked) [Compound 644] | – | – | ≥ 100 | < 10
22 | CC(=O)c1cc2cnc(Nc3ccc(N4CCNCC4)nn3)nc2c(NC(C)(C)C)n1 [Compound 909] | – | – | ≥ 100 | < 10
23 | CC(C)Nc1nc([C@@H](C)O)cc2cnc(Nc3cc4c(cn3)CNCC4)nc12 [Compound 694] | – | – | ≥ 100 | 10 to 100
24 | CC(C)Nc1nc(C2CCOC2)cc2cnc(Nc3ccc(N4CCNCC4=O)cn3)nc12 (single isomer, unassigned) [Compound 773] | – | – | ≥ 100 | < 10
25 | CC(C)Nc1nc([C@@H](C)O)cc2cnc(Nc3ccc(N4CCCC(N)C4=O)cn3)nc12 (some centres unmarked) [Compound 593] | ≥ 100 | < 10 | – | –
26 | C[C@@H](O)c1cc2cnc(Nc3ccc(N4CCN(C=O)CC4=O)cn3)nc2c(N[C@@H]2CCCOC2)n1 [Compound 351] | ≥ 100 | < 10 | – | –
27 | CC(C)Nc1nc(C(F)F)cc2cnc(Nc3ccc(OCCO)cn3)nc12 [Compound 155] | 10 to 100 | < 10 | – | –
28 | CC(C)Nc1nc([C@@H](C)O)c(Cl)c2cnc(Nc3ccc(N4CCN(CCO)CCC4=O)cn3)nc12 [Compound 841] | – | – | ≥ 100 | < 10
29 | CO[C@H](C)c1cc2cnc(Nc3ccc(CN4CCNCC4)cn3)nc2c(NCC2CCOC2)n1 (some centres unmarked) [Compound 320] | ≥ 100 | < 10 | – | –
30 | CO[C@H](C)c1cc2cnc(Nc3ccc(N4CCNCC4)nn3)nc2c(SC(C)C)n1 [Compound 728] | – | – | ≥ 100 | < 10
31 | CCCNc1nc([C@@H](C)O)cc2cnc(Nc3ccc(CN4CCN(C(C)CO)CC4)cn3)nc12 (single isomer, unassigned) [Compound 1207] | – | – | ≥ 100 | < 10
32 | COCC(C)(C)Nc1nc([C@@H](C)O)cc2cnc(Nc3ccc(CN4CC[C@@H](F)C4)cn3)nc12 [Compound 292] | ≥ 100 | 10 to 100 | – | –
33 | CC(C)Nc1nc([C@@H](C)O)cc2cnc(Nc3ccc(N4CCC(C(=O)O)CC4)nn3)nc12 [Compound 792] | – | – | ≥ 100 | 10 to 100
34 | CC(C)Nc1nc(C2CCOC2)cc2cnc(Nc3ccc(N4CCNCC4=O)cn3)nc12 (single isomer, unassigned) [Compound 774] | – | – | ≥ 100 | 10 to 100
35 | CC(C)Nc1nc(C(C)O)cc2cnc(Nc3ccc(N4CCN(C(C)CO)CCC4=O)cn3)nc12 (single isomer, unassigned) [Compound 810] | – | – | ≥ 100 | < 10
36 | CC(C)Nc1nc([C@@H](C)O)cc2cnc(Nc3ccc(C(=O)N4CCN(CCO)CC4)cn3)nc12 [Compound 1165] | – | – | 10 to 100 | < 10
37 | CC(=O)c1cc2cnc(Nc3ccc(N4CCNCC4)cn3)nc2c(N(C)C(C)C)n1 [Compound 91] | ≥ 100 | < 10 | – | –
38 | CCCNc1nc(C(F)F)cc2cnc(Nc3ccc(CN4CCC(C(=O)O)CC4)cn3)nc12 [Compound 1097] | – | – | ≥ 100 | 10 to 100
39 | CO[C@H](C)c1cc2cnc(Nc3ccc(C4CCNCC4)nn3)nc2c(NC(C)C)n1 [Compound 311] | ≥ 100 | < 10 | – | –
40 | CO[C@H](C)c1cc2cnc(Nc3ccc(N4CCN(C(=O)C5CCOC5)CC4)nn3)nc2c(NC(C)C)n1 (some centres unmarked) [Compound 1177] | – | – | ≥ 100 | < 10

Row | Structure (SMILES) | IC50 (CDK2/cyclin A2; [1]) [nM] | IC50 (CDK4/cyclin D3; [2]) [nM] | IC50 (CDK2/cyclin A2; [3]) [nM] | IC50 (CDK4/cyclin D3; [4]) [nM]
41 | CC(C)Nc1nc([C@@H](C)O)cc2cnc(Nc3ccc(CN4CCN(C(C)(C)CO)CC4)cn3)nc12 [Compound 700] | – | – | ≥ 100 | < 10
42 | CC(C)Nc1nc(C(F)F)cc2cnc(Nc3ccc(N4CCC(O)C4)cn3)nc12 (centres unmarked) [Compound 53] | 10 to 100 | < 10 | – | –
43 | CO[C@H](C)c1cc2cnc(Nc3ccc(CN4CC[C@@H](F)C4)cn3)nc2c(NC(C)C)n1 [Compound 271] | ≥ 100 | < 10 | – | –
44 | CC(C)Nc1nc([C@@H](C)O)cc2cnc(Nc3ccc(C(=O)N4CCC(N(C)C)CC4)cn3)nc12 [Compound 1161] | – | – | 10 to 100 | < 10
45 | CO[C@H](C)c1cc2cnc(Nc3ccc(OCCN4CCCC4)cn3)nc2c(NC(C)C)n1 [Compound 287] | ≥ 100 | < 10 | – | –
46 | CC(C)Nc1nc([C@@H](C)O)cc2cnc(Nc3ccc(CN4CCOCC4)cn3)nc12 [Compound 233] | ≥ 100 | < 10 | – | –
47 | CO[C@H](C)c1cc2cnc(Nc3ccc(CN4CC5CC(C4)O5)cn3)nc2c(NC(C)C)n1 [Compound 272] | ≥ 100 | < 10 | – | –
48 | CC(C)NC(=O)CN1CCN(c2ccc(Nc3ncc4cc([C@@H](C)O)nc(NC(C)C)c4n3)nn2)CC1 [Compound 968] | – | – | ≥ 100 | < 10
49 | CCCNc1nc(C2CCOC2)cc2cnc(Nc3ccc(N4CCNCC4)nn3)nc12 (centres unmarked) [Compound 946] | – | – | ≥ 100 | < 10
50 | CC(C)Nc1nc(C(F)F)c(Cl)c2cnc(Nc3ccc(N4CCNCC4)cn3)nc12 [Compound 101] | ≥ 100 | < 10 | – | –
51 | CO[C@H](C)c1cc2cnc(Nc3ccc(N4CCNCC4)nn3)nc2c(NCC(C)C)n1 [Compound 862] | – | – | ≥ 100 | < 10
52 | CO[C@H](C)c1cc2cnc(Nc3ccc(N4C[C@H]5CCN[C@H]5C4=O)cn3)nc2c(NC(C)C)n1 [Compound 556] | 10 to 100 | < 10 | – | –
53 | C[C@@H](O)c1cc2cnc(Nc3ccc(CN4CCC[C@H](O)C4)cn3)nc2c(NC(C)(C)C)n1 [Compound 1200] | – | – | ≥ 100 | < 10
54 | CNC1CCCC1Oc1ccc(Nc2ncc3cc(C(C)O)nc(NC(C)C)c3n2)nc1 (centres unmarked) [Compound 739] | – | – | ≥ 100 | < 10
55 | CC(C)Nc1nc(C(C)O)cc2cnc(Nc3ccc(N4CCCC(O)C4)nn3)nc12 (single isomer, unassigned) [Compound 581] | ≥ 100 | < 10 | – | –
56 | CO[C@H](C)c1cc2cnc(Nc3ccc(CN4CCN(CCO)CC4)cn3)nc2c(NCC2CCOCC2)n1 [Compound 918] | – | – | ≥ 100 | < 10
57 | CO[C@H](C)c1cc2cnc(Nc3ccc(CN4CCN(CC(F)F)CC4)cn3)nc2c(NC(C)C)n1 [Compound 281] | ≥ 100 | 10 to 100 | – | –
58 | CC(C)Nc1nc([C@@H](C)O)cc2cnc(Nc3ccc(N4CC(CO)C4)nn3)nc12 [Compound 667] | – | – | ≥ 100 | < 10
